Results on three molecules are retold here after patent publication US4337248A, “Paromomycin containing compounds and method of use” (Farmitalia Carlo Erba S.p.A., priority 1979, dated 1982).

Holding throughout (type): cell-based
For assay [1], the system named is Staphylococcus aureus 209P. Description: In vitro MIC by serial dilution in liquid medium, Staphylococcus aureus 209P. Conditions: read-out: minimum inhibitory concentration (MIC). The method, then:
(§1) The "in vitro" tests are carried out with the method of serial dilutions in liquid medium (Nutrient Broth Difco) and the minimal inhibition concentration (MIC) is determined after 24 hours incubation at 37° C.

The test system of another assay is Escherichia coli K 12. The assay is described as follows: In vitro MIC by serial dilution in liquid medium, Escherichia coli K 12. Conditions: K12, Nutrient Broth Difco, 24 hours, 37° C, read-out: minimum inhibitory concentration (MIC). The method, then:
as §1

Assay [2] has as its system Escherichia coli K 12-R 112. Description: In vitro MIC by serial dilution in liquid medium, Escherichia coli K 12-R 112. Conditions: K12R112, 24 h, read-out: minimum inhibitory concentration (MIC). The protocol: as §1
Assay [3] relates to Escherichia coli K 12-R 148. Description: In vitro MIC by serial dilution in liquid medium, Escherichia coli K 12-R 148. Conditions: K12R148; Escherichia coli K 12-R 148, inactivating enzyme APH (3') II; Nutrient Broth Difco, 24 hours, 37° C; read-out: minimum inhibitory concentration (MIC). The method, then:
as §1

Assay [4] concerns Escherichia coli K 12-R 55. The assay is described as follows: In vitro MIC by serial dilution in liquid medium, Escherichia coli K 12-R 55. Conditions: K12R55; Escherichia coli K 12-R 55, inactivating enzyme AAC (3) I; Nutrient Broth Difco, 24 hours, 37° C; read-out: minimum inhibitory concentration (MIC). The protocol:
as §1

Assay [5] relates to resistant strains of gram-negative bacteria. Description: In vitro antibacterial activity, resistant strains of gram-negative bacteria (summary in words). Conditions: against some resistant strains of gram-negative bacteria. The protocol: as §1
In a further assay the test system is bacteria. Description: In vitro antibacterial activity (general statement). The protocol: as §1
The mark [6] stands for this setting: Staphylococcus aureus 209P, Nutrient Broth Difco, 24 hours, 37° C.

The structures appear in SMILES notation. Values after ≈ are worked out from the molar mass of the structure shown. Where two headings read alike, the source gives them in different places. Where only a bound is given, the exact number is not on record here.

For `NC[C@@H]1O[C@H](O[C@H]2[C@@H](O)[C@H](O[C@@H]3[C@@H](O)[C@H](N)C[C@H](N)[C@H]3O[C@H]3O[C@H](CO)C[C@H](O)[C@H]3N)O[C@@H]2CO)[C@H](N)[C@@H](O)[C@@H]1O` [(8), 4'-Deoxy paromomycin], the MIC in assay [1] (setting [6]) was 1.55 µg/mL (≈ 2.58 µM); in the assay with Escherichia coli K 12 it was 12.5 µg/mL (≈ 20.8 µM); in assay [2] it was more than 200 µg/mL; in assay [3], 50 µg/mL (≈ 83.4 µM); in assay [4] it was 6.25 µg/mL (≈ 10.4 µM). Further, the “activity compared with paromomycin” value in assay [5] is recorded as “increased activity against some resistant strains of gram-negative bacteria”. Moreover, the “antibacterial activity "in vitro"” value in the assay on bacteria was “display antibacterial activity”.

For the molecule `NC[C@@H]1O[C@H](O[C@H]2[C@@H](O)[C@H](O[C@@H]3[C@@H](O)[C@H](N)C[C@H](N)[C@H]3O[C@H]3O[C@H](CO)[C@H](Cl)[C@H](O)[C@H]3N)O[C@@H]2CO)[C@H](N)[C@@H](O)[C@@H]1O` [(12), 4'-Deoxy-4'-epi-chloro-paromomycin], the MIC in assay [1] (setting [6]) is 6.25 µg/mL (≈ 9.86 µM); in the assay with Escherichia coli K 12, 50 µg/mL (≈ 78.9 µM); in assay [2] it was more than 200 µg/mL; in assay [3] it was 200 µg/mL (≈ 315 µM); in assay [4] it was 50 µg/mL (≈ 78.9 µM). Further, the “antibacterial activity "in vitro"” value with bacteria is given as “display antibacterial activity”.

Regarding `NC[C@@H]1O[C@H](O[C@H]2[C@@H](O)[C@H](O[C@@H]3[C@@H](O)[C@H](N)C[C@H](N)[C@H]3O[C@H]3O[C@H](CO)[C@@H](O)[C@H](O)[C@H]3N)O[C@@H]2CO)[C@H](N)[C@@H](O)[C@@H]1O` [paromomycin], the MIC was 1.55 µg/mL (≈ 2.52 µM) in assay [1] (Staphylococcus aureus, 209P, 24 h); 12.5 µg/mL (≈ 20.3 µM) in the assay with Escherichia coli K 12; more than 200 µg/mL in assay [2]; more than 200 µg/mL in assay [3]; 6.25 µg/mL (≈ 10.2 µM) in assay [4].
